Test results: ChEMBL document CHEMBL3580597 (J Med Chem, 2015)

Tests used:
[1] = biological target: T1, Bromodomain-containing protein 4 (Homo sapiens, UniProt O60885); assay: biochemical
[2] = test system: K562; assay: cells; type: functional, cell-based; conditions: Homo sapiens, K562, 96 h
[3] = biological target: T1, Bromodomain-containing protein 4; assay: Displacement of FAM-labeled ZBA248 from BRD4 BD1 (44 to 168 amino acid residues) (unknown origin) expressed in Rosetta2 DE3 cells after 30 mins by fluorescence polarization assay
[4] = biological target: T2, ATPase family AAA domain-containing protein 2B (Homo sapiens, UniProt Q9ULI0); assay: Binding affinity to biotinylated ATAD2B (953 to 1086 amino acid residues) (unknown origin) expressed in Rosetta2 DE3 cells by bio-layer interferometry method
T2 sequence (Q9ULI0 whole entry): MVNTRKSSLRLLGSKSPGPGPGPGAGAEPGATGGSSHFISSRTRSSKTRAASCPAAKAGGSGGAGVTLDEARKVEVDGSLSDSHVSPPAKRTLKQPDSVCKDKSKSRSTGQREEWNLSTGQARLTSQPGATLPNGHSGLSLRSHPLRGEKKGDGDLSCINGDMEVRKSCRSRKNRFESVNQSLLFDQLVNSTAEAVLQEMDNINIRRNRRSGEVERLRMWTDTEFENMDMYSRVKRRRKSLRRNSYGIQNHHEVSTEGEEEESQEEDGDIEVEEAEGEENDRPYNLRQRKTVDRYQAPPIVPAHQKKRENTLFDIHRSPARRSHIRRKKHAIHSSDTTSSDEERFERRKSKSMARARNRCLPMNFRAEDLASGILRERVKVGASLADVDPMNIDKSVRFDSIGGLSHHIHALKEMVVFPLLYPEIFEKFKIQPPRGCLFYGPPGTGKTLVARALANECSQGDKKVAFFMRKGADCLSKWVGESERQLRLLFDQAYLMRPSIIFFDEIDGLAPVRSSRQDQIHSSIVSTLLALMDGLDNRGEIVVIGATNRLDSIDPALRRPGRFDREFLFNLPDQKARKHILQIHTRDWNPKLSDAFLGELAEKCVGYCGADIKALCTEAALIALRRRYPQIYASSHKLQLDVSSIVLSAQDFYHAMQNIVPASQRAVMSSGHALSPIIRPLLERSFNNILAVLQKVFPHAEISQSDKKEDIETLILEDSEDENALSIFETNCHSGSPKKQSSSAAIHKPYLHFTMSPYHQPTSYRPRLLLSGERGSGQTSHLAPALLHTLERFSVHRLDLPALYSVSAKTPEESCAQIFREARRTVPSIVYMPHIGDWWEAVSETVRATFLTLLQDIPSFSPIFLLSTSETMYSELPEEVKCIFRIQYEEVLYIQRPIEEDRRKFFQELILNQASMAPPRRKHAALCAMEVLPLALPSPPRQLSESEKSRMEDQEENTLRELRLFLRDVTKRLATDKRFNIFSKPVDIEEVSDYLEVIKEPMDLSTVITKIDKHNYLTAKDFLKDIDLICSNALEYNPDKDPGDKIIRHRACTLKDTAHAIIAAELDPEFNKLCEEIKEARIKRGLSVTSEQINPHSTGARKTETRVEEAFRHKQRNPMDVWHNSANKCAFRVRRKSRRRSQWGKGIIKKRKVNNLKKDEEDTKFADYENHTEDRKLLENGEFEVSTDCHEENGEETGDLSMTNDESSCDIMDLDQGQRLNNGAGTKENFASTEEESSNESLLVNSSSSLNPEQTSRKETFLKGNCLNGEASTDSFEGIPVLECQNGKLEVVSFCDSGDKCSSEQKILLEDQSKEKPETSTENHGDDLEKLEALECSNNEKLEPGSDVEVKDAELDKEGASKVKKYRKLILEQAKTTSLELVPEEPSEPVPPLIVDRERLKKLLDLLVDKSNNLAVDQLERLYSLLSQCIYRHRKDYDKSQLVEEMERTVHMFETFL

[5] = biological target: Protein polybromo-1 (Homo sapiens, UniProt Q86U86); assay: Binding affinity to biotinylated PB1BR5 (645 to 766 amino acid residues) (unknown origin) expressed in Rosetta2 cells by bio-layer interferometry method
[6] = biological target: Histone-lysine N-methyltransferase 2A (Homo sapiens, UniProt Q03164); assay: Binding affinity to biotinylated MLL1 (1566 to 1784 amino acid residues) (unknown origin) expressed in Rosetta2 cells by bio-layer interferometry method
Chain of Histone-lysine N-methyltransferase 2A (Q03164 1-2718 limits assumed): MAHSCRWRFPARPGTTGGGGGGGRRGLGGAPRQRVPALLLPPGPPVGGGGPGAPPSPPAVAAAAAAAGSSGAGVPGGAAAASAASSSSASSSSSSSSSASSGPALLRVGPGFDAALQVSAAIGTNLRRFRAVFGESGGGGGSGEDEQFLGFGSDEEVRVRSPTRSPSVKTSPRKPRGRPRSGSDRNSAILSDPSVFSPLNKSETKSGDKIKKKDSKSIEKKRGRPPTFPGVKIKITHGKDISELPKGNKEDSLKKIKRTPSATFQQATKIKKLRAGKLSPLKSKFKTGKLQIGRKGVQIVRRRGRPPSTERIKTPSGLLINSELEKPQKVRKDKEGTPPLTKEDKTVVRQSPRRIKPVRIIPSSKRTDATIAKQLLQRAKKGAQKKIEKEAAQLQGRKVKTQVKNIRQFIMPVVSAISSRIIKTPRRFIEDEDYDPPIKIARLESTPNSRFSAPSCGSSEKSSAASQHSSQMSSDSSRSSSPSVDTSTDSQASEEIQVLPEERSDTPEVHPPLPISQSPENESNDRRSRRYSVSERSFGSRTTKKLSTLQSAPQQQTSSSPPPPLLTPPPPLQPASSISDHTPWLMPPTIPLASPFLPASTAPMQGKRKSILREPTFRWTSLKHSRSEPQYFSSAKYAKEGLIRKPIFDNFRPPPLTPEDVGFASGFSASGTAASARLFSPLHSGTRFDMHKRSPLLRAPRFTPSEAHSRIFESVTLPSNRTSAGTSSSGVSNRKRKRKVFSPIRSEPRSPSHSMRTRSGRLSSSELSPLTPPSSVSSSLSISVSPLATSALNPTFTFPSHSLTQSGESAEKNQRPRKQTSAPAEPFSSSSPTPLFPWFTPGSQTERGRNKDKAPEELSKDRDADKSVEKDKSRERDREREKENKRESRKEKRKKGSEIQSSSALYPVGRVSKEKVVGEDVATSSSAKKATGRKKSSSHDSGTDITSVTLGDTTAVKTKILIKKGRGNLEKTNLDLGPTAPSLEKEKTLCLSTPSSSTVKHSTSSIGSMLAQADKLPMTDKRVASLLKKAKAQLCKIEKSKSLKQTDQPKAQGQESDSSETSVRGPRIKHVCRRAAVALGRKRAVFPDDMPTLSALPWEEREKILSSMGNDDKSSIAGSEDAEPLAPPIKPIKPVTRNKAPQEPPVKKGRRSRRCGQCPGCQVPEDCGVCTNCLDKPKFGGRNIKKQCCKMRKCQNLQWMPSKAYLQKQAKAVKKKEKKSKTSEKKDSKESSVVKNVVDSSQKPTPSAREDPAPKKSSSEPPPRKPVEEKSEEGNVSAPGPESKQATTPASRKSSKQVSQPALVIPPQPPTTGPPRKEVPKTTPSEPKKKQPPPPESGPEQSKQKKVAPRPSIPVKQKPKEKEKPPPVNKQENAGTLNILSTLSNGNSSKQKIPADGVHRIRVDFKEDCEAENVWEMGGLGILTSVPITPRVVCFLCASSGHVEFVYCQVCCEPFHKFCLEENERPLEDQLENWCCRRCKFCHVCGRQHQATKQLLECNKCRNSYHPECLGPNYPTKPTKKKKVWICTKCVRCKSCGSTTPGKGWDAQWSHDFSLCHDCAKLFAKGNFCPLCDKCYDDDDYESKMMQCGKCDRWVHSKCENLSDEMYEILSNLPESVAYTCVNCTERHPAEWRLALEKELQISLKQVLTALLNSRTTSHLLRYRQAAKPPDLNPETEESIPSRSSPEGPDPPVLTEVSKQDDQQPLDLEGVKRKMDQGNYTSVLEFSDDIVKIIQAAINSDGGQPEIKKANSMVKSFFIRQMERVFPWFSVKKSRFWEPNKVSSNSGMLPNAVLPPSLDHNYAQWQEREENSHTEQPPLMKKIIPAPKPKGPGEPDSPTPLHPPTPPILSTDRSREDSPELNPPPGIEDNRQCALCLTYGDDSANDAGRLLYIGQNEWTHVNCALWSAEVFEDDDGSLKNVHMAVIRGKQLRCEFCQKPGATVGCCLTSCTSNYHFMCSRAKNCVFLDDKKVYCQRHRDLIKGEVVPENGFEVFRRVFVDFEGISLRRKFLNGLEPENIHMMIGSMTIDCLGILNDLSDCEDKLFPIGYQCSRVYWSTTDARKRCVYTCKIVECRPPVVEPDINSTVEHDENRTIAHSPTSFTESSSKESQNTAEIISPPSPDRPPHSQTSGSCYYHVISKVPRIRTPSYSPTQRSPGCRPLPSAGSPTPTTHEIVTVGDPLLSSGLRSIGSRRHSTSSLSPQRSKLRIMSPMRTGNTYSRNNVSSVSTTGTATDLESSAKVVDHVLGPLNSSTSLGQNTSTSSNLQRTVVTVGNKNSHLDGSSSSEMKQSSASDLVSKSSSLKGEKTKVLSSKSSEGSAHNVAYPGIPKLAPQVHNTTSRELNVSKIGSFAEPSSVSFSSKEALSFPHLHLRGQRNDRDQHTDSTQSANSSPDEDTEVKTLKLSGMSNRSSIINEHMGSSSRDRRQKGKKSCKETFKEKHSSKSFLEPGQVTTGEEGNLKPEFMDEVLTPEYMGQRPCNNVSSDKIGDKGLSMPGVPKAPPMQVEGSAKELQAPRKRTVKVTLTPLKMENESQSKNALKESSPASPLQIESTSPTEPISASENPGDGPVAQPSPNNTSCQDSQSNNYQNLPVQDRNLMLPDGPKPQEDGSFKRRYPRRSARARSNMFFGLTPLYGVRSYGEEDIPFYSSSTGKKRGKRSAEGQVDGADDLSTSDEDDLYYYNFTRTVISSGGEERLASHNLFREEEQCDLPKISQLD
Chain of Histone-lysine N-methyltransferase 2A (Q03164 2719-3969 limits assumed): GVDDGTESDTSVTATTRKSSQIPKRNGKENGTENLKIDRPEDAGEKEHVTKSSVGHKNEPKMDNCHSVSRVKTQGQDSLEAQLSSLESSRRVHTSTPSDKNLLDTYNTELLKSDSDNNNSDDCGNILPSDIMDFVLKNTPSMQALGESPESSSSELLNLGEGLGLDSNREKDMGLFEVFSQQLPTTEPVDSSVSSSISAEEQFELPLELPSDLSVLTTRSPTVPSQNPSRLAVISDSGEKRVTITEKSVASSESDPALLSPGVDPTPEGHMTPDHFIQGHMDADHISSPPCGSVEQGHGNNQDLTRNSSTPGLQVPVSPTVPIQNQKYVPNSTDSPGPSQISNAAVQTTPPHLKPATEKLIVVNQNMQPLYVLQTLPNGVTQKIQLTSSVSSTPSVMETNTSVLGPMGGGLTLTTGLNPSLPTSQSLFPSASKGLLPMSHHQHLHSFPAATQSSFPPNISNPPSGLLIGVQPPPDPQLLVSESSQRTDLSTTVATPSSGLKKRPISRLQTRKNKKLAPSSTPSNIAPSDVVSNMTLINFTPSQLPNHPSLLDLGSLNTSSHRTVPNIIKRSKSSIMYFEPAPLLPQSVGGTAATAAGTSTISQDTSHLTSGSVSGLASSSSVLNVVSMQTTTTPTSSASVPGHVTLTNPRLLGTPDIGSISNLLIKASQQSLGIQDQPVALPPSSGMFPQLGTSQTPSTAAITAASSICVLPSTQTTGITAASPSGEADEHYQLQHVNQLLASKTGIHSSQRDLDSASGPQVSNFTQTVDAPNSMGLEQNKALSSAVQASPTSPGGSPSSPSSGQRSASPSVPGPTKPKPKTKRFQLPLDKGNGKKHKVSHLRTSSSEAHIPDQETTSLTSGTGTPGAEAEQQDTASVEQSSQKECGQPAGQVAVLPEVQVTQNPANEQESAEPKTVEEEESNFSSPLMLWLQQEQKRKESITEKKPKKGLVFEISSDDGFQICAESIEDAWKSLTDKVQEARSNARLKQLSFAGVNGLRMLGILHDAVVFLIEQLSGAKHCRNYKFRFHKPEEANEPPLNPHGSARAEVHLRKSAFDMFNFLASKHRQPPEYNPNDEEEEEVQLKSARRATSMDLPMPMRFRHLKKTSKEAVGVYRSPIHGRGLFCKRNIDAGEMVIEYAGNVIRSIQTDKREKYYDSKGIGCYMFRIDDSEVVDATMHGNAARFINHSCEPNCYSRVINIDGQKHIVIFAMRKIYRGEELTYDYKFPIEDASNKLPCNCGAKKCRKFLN

[7] = biological target: T1, Bromodomain-containing protein 4; assay: Displacement of FAM-labeled ZBA248 from BRD4 BD2 (333 to 460 amino acid residues) (unknown origin) expressed in Rosetta2 DE3 cells after 30 mins by fluorescence polarization assay
[8] = biological target: Bromodomain-containing protein 2 (Homo sapiens, UniProt P25440); assay: Binding affinity to biotinylated BRD2 BD1 (72 to 205 amino acid residues) (unknown origin) expressed in Rosetta2 DE3 cells by bio-layer interferometry method
Chain of Bromodomain-containing protein 2 (P25440 whole entry, the tested form may be a part): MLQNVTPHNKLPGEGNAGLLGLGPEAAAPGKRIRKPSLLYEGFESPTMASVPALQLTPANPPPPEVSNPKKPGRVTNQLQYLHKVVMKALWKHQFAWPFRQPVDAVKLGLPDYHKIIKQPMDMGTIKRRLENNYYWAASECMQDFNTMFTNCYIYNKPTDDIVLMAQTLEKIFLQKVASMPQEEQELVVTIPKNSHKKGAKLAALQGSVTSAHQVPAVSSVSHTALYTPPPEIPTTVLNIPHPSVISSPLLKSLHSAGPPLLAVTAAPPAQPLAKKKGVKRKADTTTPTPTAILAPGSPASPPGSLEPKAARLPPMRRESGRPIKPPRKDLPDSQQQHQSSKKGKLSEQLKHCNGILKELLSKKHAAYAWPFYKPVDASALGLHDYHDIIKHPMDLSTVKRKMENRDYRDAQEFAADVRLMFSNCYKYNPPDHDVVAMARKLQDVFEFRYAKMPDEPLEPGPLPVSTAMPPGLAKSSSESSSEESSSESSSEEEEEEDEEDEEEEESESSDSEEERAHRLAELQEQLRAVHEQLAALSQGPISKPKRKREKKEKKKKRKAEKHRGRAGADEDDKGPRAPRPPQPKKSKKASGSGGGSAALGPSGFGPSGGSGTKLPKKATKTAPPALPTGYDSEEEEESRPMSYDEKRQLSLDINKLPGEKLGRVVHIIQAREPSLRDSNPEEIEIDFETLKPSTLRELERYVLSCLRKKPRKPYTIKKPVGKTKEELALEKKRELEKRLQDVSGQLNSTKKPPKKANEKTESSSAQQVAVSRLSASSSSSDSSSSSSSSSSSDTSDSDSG

[9] = biological target: T1, Bromodomain-containing protein 4; assay: biochemical; remark: listed apart in the source

Kd [1]: 47 nM
IC50 [2]: > 2000 nM
IC50 [3]: 75.5 nM
Ki [3]: 24.7 nM
Kd [4]: > 10000 nM
Kd [5]: > 10000 nM
Kd [6]: 9500 nM
IC50 [7]: 36.5 nM
Ki [7]: 12.2 nM
Kd [8]: 48.1 nM
Kd [9]: 44.6 nM
Structure (SMILES): COc1cc2c(cc1-c1c(C)noc1C)[nH]c1ccnc(-c3c(C4CC4)n[nH]c3C)c12
